Source: patent publication US4411834A, “Preparation of II-deoxy anthracycline antibiotics” (Farmitalia Carlo Erba, S.p.A., priority 1978, dated 1983)
≈ marks a conversion by molar mass, not a printed value. Where two headings read alike, the source gives them in different places.

Key:
HeLa cells = experiment: Effect on HeLa cells viability in vitro; format: cell-based; details: Homo sapiens; for activity at 0.05 µg/mL: dose 50 ng/ml; for activity at 0.1 µg/mL: dose 100 ng/ml; for activity at 0.2 µg/mL: dose 200 ng/ml; for activity at 0.4 µg/mL: dose 400 ng/ml
Description: (§1) The new glycosides were tested against HeLa cells in vitro (time of exposure to the drugs: 24 hours), and on L 1210 and P 388 leukemia in mice in comparison with daunomycin.
^(a) HeLa cells were exposed to the drugs for 24 hours, then plated.
Number of colonies was evaluated 5 days later.
^(b) % over untreated controls.

[1] = Toxic deaths in leukemia-bearing mice; format: in vivo; details: for Toxic deaths: intraperitoneally on day 1, macroscopic autopsy findings
Description: as §1

Sarcina lutea ATCC 9341 = experiment: MIC, standard tube dilution procedure; format: cell-based; details: Micrococcus luteus, ATCC9341, in vitro
Description: (§2) The "in vitro" minimum inhibitory concentrations (MIC) of glycosides A, B, C and D were determined for certain microorganisms using the standard tube dilution procedure and are reported in Table 6.

Escherichia coli B = experiment: MIC, standard tube dilution procedure; format: cell-based; details: in vitro
Description: as §2

[2] = tested on: Bacillus subtilis ATCC 6633; experiment: MIC, standard tube dilution procedure; format: cell-based; details: ATCC6633, in vitro
Description: as §2

[3] = tested on: Staphylococcus aureus 153; experiment: MIC, standard tube dilution procedure; format: cell-based; details: in vitro
Description: as §2

[4] = tested on: Staphylococcus aureus 209 P; experiment: MIC, standard tube dilution procedure; format: cell-based; details: in vitro
Description: as §2

P 388 leukemia = experiment: Effect against P 388 leukemia in mice; format: in vivo
Description: as §1
^(a) Mice were treated intraperitoneally on day 1 after tumor cell

[5] = 24 h, read-out: No. of colonies, % over untreated controls
[6] = 24 h, HeLa cells, 24 hours exposure, colonies evaluated 5 days later (Table 7), read-out: ID50 (the source's name)
[7] = 24 h, HeLa cells, 24 hours exposure, read-out: ID50 (the source's name)
[8] = 24 hours exposure, read-out: No. of colonies, % over untreated controls

SMILES | MIC (Sarcina lutea ATCC 9341) [µg/mL] | MIC (Escherichia coli B) [µg/mL] | MIC [2] [µg/mL] | MIC [3] [µg/mL] | MIC [4] [µg/mL] | IC50 (HeLa cells; [6]) [µg/mL] | IC50 (HeLa cells; [7]) [µg/mL] | activity at 0.05 µg/mL (HeLa cells; [8]) [%] | activity at 0.1 µg/mL (HeLa cells; [8]) [%] | activity at 0.2 µg/mL (HeLa cells; [8]) [%] | activity at 0.4 µg/mL (HeLa cells; [8]) [%] | also measured
COc1cccc2c1C(=O)c1c(O)c3c(c(O)c1C2=O)C[C@@](O)(C(C)=O)C[C@@H]3O[C@H]1C[C@H](N)[C@H](O)[C@H](C)O1 [Daunomycin, reference compound] |  |  |  |  |  |  |  |  |  |  |  | IC50 (HeLa cells; 24 h, read-out: ID50): 0.006 to 0.007 µg/mL (≈ 0.0114 to 0.0133 µM); activity at 0.00312 µg/mL (HeLa cells; [5]): 71 to 80%; activity at 0.00625 µg/mL (HeLa cells; [5]): 48 to 66%; Toxic deaths ([1]; 6.6 mg/kg): 14/26
COc1cccc2c1C(=O)c1c(cc3c(c1O)[C@@H](O[C@H]1C[C@H](N)[C@H](O)[C@H](C)O1)C[C@](O)(C(=O)CO)C3)C2=O [Glycoside A, 11-deoxyadriamycin] | 100 (≈ 190 µM) | 50 (≈ 94.8 µM) | 100 (≈ 190 µM) | 500 (≈ 948 µM) | 125 (≈ 237 µM) | 0.105 (≈ 0.199 µM) | 0.1 (≈ 0.19 µM) | 73 | 63 | 1 |  | activity at 0.025 µg/mL (HeLa cells; dose 25 ng/ml, 24 hours exposure, read-out: No. of colonies, % over untreated controls): 74%; Antitumor activity compared with daunomycin (in words) (P 388 leukemia; at the tolerated dose): greater than that of daunomycin; Activity against P 338 leukemia (in words) (P 388 leukemia; dose of 66 mg/kg): active; Toxicity (in words) ([1]; dose of 100 mg/kg, mice): toxic
COc1cccc2c1C(=O)c1c(cc3c(c1O)[C@@H](O[C@H]1C[C@H](N)[C@H](O)[C@H](C)O1)C[C@](O)(C(C)O)C3)C2=O (stereo partly drawn) [Glycoside B, 11-deoxy-13-dihydrodaunomycin] | 100 (≈ 195 µM) | 100 (≈ 195 µM) | 100 (≈ 195 µM) | 1000 (≈ 1950 µM) | 1000 (≈ 1950 µM) |  | 0.44 (≈ 0.857 µM) |  |  |  | 66 | activity at 0.8 µg/mL (HeLa cells; dose 800 ng/ml, 24 hours exposure, read-out: No. of colonies, % over untreated controls): 20%; activity at 1.6 µg/mL (HeLa cells; dose 1600 ng/ml, 24 hours exposure, read-out: No. of colonies, % over untreated controls): 0%; Toxic deaths ([1]; 500 mg/kg): 2/2
COc1cccc2c1C(=O)c1c(cc3c(c1O)[C@@H](O[C@H]1C[C@H](N)[C@H](O)[C@H](C)O1)C[C@](O)(C(C)=O)C3)C2=O [Glycoside C, 11-deoxydaunomycin] | 12.5 (≈ 24.4 µM) | 25 (≈ 48.9 µM) | 50 (≈ 97.7 µM) | 250 (≈ 489 µM) | 62 (≈ 121 µM) | 0.054 (≈ 0.106 µM) | 0.05 (≈ 0.0977 µM) | 54 | 44 | 3 |  | Toxic deaths ([1]; 100 mg/kg): 3/8; Toxic deaths ([1]; 150 mg/kg): 3/19
CC[C@]1(O)Cc2cc3c(c(O)c2[C@@H](O[C@H]2C[C@H](N)[C@H](O)[C@H](C)O2)C1)C(=O)c1c(OC)cccc1C3=O [Glycoside D, 11-deoxy-13-deoxo-daunomycin] | 25 (≈ 50.2 µM) | 50 (≈ 100 µM) | 100 (≈ 201 µM) | 1000 (≈ 2010 µM) | 250 (≈ 502 µM) |  | 0.22 (≈ 0.442 µM) |  | 109 | 53 | 0 | Toxic deaths ([1]; 125 mg/kg): 5/5; Toxic deaths ([1]; 250 mg/kg): 5/5
